From patent US20170342064A1, “COMPOUNDS FOR THE TREATMENT OF CANCER” (Bayer Pharma Aktiengesellschaft, priority 2014, published 2017)

Legend:
[1] = system: HeLa human cervical tumor cells; assay: Proliferation assay (crystal violet), HeLa cells; type: cell-based; details: 96 h, 4 days incubation, crystal violet staining, read-out: Inhibition of cell proliferation, cell Line: HeLa IC50
Method: Cultivated tumor cells (MCF7, hormone dependent human mammary carcinoma cells, ATCC HTB22; NCI-H460, human non-small cell lung carcinoma cells, ATCC HTB-177; DU 145, hormone-independent human prostate carcinoma cells, ATCC HTB-81; HeLa-MaTu, human cervical carcinoma cells, EPO-GmbH, Berlin; HeLa-MaTu-ADR, multidrug-resistant human cervical carcinoma cells, EPO-GmbH, Berlin; HeLa human cervical tumor cells, ATCC CCL-2; B16F10 mouse melanoma cells, ATCC CRL-6475) were plated at a density of 5000 cells/well (MCF7, DU145, HeLa-MaTu-ADR), 3000 cells/well (NCI-H460, HeLa-MaTu, HeLa), or 1000 cells/well (B16F10) in a 96-well multititer plate in 200 μl of their respective growth medium supplemented 10% fetal calf serum. After 24 hours, the cells of one plate (zero-point plate) were stained with crystal violet (see below), while the medium of the other plates was replaced by fresh culture medium (200 μl), to which the test substances were added in various concentrations (0 μM, as well as in the range of 0.01-30 μM; the final concentration of the solvent dimethyl sulfoxide was 0.5%). The cells were incubated for 4 days in the presence of test substances. Cell proliferation was determined by staining the cells with crystal violet: the cells were fixed by adding 20 μl/measuring point of an 11% glutaric aldehyde solution for 15 minutes at room temperature. After three washing cycles of the fixed cells with water, the plates were dried at room temperature. The cells were stained by adding 100 μl/measuring point of a 0.1% crystal violet solution (pH 3.0). After three washing cycles of the stained cells with water, the plates were dried at room temperature. The dye was dissolved by adding 100 μl/measuring point of a 10% acetic acid solution. The extinction was determined by photometry at a wavelength of 595 nm. The change of cell number, in percent, was calculated by normalization of the measured values to the extinction values of the zero-point plate (=0%) and the extinction of the untreated (0 μm) cells (=100%). The IC50 values were determined by means of a 4 parameter fit.
The reference examples described above are characterized by the following IC50 values, determined in a HeLa cell proliferation assay (as described above): […]

[2] = In vitro stability in human plasma (HPLC detection); type: in vitro ADME; details: 37° C., HPLC peak area ratio
Method: (§1) 1 mg of test compound is dissolved in 1.25 ml dimethylsulfoxide. Then 1.25 ml water are added. 0.5 ml of this sample solution are mixed with 0.5 ml heparinized and 37° C. warm plasma (wistar rat plasma or human plasma). A first sample (10 μl) is immediately taken for HPLC analysis. In the period up to 4 h after the start of incubation further 10 μl aliquots are taken after 30, 60, 90, 120 and 240 minutes and the amount of the test compound is determined. Agilent 1100 with DAD (G1315A), binary pump (G1312A), autosampler (G1329A), column oven (G1316A), thermostat (G1330B); column: Kromasil 100 C18, 250 mm×4 mm, 5 μm; column temperature: 45° C.; eluent A: water+5 ml of perchloric acid/litre, eluent B: acetonitrile. 0 min 98% A, 2% B→0-3.0 min 85% A, 15% B→3.0-8.0 min 55% A, 45% B→8.0-16.0 min 55% A, 45% B→16.0-20.0 min 10% A, 90% B→20.0-21.0 10% A, 90% B→21.0-24.0 min 98% A, 2% B→24.0-25.0 min 98% A, 2% B; flow rate: 1.5 ml/min; UV detection: 222 nm.

[3] = Stability in buffer at pH 7.4; type: physicochemical; details: buffer pH 7.4, 37° C., HPLC peak area ratio
Method: 0.3 mg of the test compound are solved in 0.1 ml dimethylsulfoxide and 0.4 ml acetonitrile. For complete dissolution the HPLC vial with the sample solution is sonified for about 20 seconds. Then 1.0 ml of the buffer solution is added, and the sample is again treated in the ultrasonic bath. 90 g of sodium chloride, 13.61 g of potassium dihydrogen phosphate and 83.35 g of 1 M sodium hydroxide solution are made up to 1 litre with Millipore water and then diluted 1:10. 10 μl portions of the sample solution are analysed by HPLC to determine the amount of the test compound over a period of 24 hours at 37° C. The peak areas in percentage are used for quantification. Agilent 1100 with DAD (G1315B), binary pump (G1312A), autosampler (G1329A), column oven (G1316A), thermostat (G1330B); column: Kromasil 100 C18, 250 mm×4 mm, 5 μm; column temperature: 37° C.; eluent A: water+5 ml of perchloric acid/litre, eluent B: acetonitrile. 0 min 98% A, 2% B→0-3.0 min 85% A, 15% B→3.0-8.0 min 50% A, 50% B→8.0-16.0 min 50% A, 50% B→16.0-20.0 min 10% A, 90% B→20.0-21.0 10% A, 90% B→21.0-24.0 min 98% A, 2% B→24.0-25.0 min 98% A, 2% B; flow rate: 1.5 ml/min; UV detection: 210 nm. The ratio of the peak areas (F) at different time points in relation to the peak areas at the starting time are shown in Table 1 for representative examples: […]

[4] = In vitro stability in rat plasma (HPLC detection); type: in vitro ADME, wistar rat; details: 37° C., HPLC peak area ratio
Method: as §1

For `COc1cc(S(C)(=O)=O)ccc1Nc1nc2cc(-c3ccc(NC(=O)[C@H](C)c4ccc(F)cc4)cc3)ccn2n1` [01.01, (2R)-2-(4-fluorophenyl)-N-[4-(2-{[2-methoxy-4-(methylsulfonyl)phenyl]amino}[1,2,4]triazolo[1,5-a]pyridin-7-yl)phenyl]propanamide], which IC50 [1] is on record?
The IC50 was no more than 200 nM.

Which “% Test Compound after 4 h [F(t = 24 h) × 100/F(t = 0 h)]” value [2] does the source give for `C[C@@H](C(=O)Nc1ccc(-c2ccn3nc(N(C(=O)OCOC(=O)[C@@H](N)C(C)(C)C)c4ccc(C(=O)N5CC(F)C5)cc4OCC(F)(F)F)nc3c2)cc1)c1ccc(F)cc1.Cl` [Example 1.1, [({4-[(3-fluoroazetidin-1-yl)carbonyl]-2-(2,2,2-trifluoroethoxy)phenyl}[7-(4-{[(2R)-2-(4-fluorophenyl)propanoyl]amino}phenyl)[1,2,4]triazolo[1,5-a]pyridin-2-yl]carbamoyl)oxy]methyl 3-methyl-L-valinate hydrochloride] here?
The value was 0.0%.

And the “% Test Compound after 24 h [F(t = 24 h) × 100/F(t = 0 h)]” value [3]?
Its value is 0.0%.

What about the “% Test Compound after 4 h [F(t = 24 h) × 100/F(t = 0 h)]” value [4] of the same compound?
Its value is 0.0%.

Which IC50 [1] does the source give for `COc1cc(C(=O)N2CC(F)C2)ccc1Nc1nc2cc(-c3ccc(NC(=O)[C@H](C)c4ccc(F)cc4)cc3)ccn2n1` [Reference Example 01.02, (2R)—N-{4-[2-({4-[(3-fluoroazetidin-1-yl)carbonyl]-2-methoxyphenyl}amino)[1,2,4]triazolo[1,5-a]pyridin-7-yl]phenyl}-2-(4-fluorophenyl)propanamide] here?
Its IC50 is no more than 100 nM.

With `C[C@@H](C(=O)Nc1ccc(-c2ccn3nc(Nc4ccc(C(=O)N5CC(F)C5)cc4OCC(F)(F)F)nc3c2)cc1)c1ccc(F)cc1` [Reference Example 01.03, (2R)—N-{4-[2-({4-[(3-fluoroazetidin-1-yl)carbonyl]-2-(2,2,2-trifluoroethoxy)phenyl}amino)[1,2,4]triazolo[1,5-a]pyridin-7-yl]phenyl}-2-(4-fluorophenyl)propanamide] as the compound, how does the IC50 [1] read?
Its IC50 is no more than 100 nM.

For `C[C@@H](C(=O)Nc1ccc(-c2ccn3nc(Nc4ccc(S(C)(=O)=O)cc4OCC(F)(F)F)nc3c2)cc1)c1ccc(F)cc1` [Reference Example 01.05, (2R)-2-(4-fluorophenyl)-N-[4-(2-{[4-(methylsulfonyl)-2-(2,2,2-trifluoroethoxy)phenyl]amino}[1,2,4]triazolo[1,5-a]pyridin-7-yl)phenyl]propanamide], which IC50 [1] is on record?
The IC50 was no more than 100 nM.

With `COc1cc(C(=O)N2CCC2)ccc1Nc1nc2cc(-c3ccc(NC(=O)[C@H](C)c4ccc(F)cc4)cc3)ccn2n1` [Reference Example 01.06, (2R)—N-[4-(2-{[4-(azetidin-1-ylcarbonyl)-2-methoxyphenyl]amino}[1,2,4]triazolo[1,5-a]pyridin-7-yl)phenyl]-2-(4-fluorophenyl)propanamide] as the compound, how does the IC50 [1] read?
Its IC50 is no more than 100 nM.
